Where no end group is shown, it is not given here.

The test system of one data set is DR3DQ2×RIP-B7.1 mice. In words: Adjuvanted antigen priming (disease acceleration), diabetes monitoring. In kind it is in vivo. The source says:
Mice were monitored weekly for diabetes up to 20 weeks post prime. The grey dotted line indicates the expected level of spontaneous diabetes in mice aged 12 weeks on day 0 of the experiments (based on the data in FIG. 1 and normalised for gender). Statistical analysis with Mantel-Cox Log-rank test. **p<0.01, ***p<0.001. • (b-e) Blood glucose levels for each individual mouse in the group immunised with PBS (b), murine proinsulin-2 peptides (c), human GAD65 (d) or fragment of human IA-2 (e).
Mice were monitored weekly for diabetes up to 20 weeks post prime. The grey dotted line indicates the expected level of spontaneous diabetes in mice aged 8 weeks on day 0 of the experiment, based on the data in FIG. 1 and normalised for gender. Statistical analysis with Mantel-Cox Log-rank test. ***p<0.001 for B23-C20 versus B1-30 or C10-A6. ? p<0.01 for B23-C20 versus C25-A21. Rest not significant. • (b-e) Blood glucose levels for each individual mouse in the group immunised with B1-30 (b), B23-C20 (c), C10-A6 (d) or C25-A21 (e).
(a) DR3DQ2×RIP-B7.1 mice aged 10-14 weeks were challenged with 100 μg of either GP-15 (2 ♂3♀), YA-15 (2 ♂3♀), ME-15 (3 ♂2♀), RG-15 (3 ♂2♀), DA-15 (2 ♂3♀) or VD-14 (3♂2♀) peptide in TiterMax Gold adjuvant s.c. on days 0 and 14, with 200 ng pertussis toxin administered i.p on days 0 and 1 or 2. Mice were monitored weekly for diabetes up to 20 weeks post prime. The grey dotted line indicates the expected level of spontaneous diabetes in mice aged 14 weeks on day 0 of the experiments (based on the data in FIG. 1 and normalised for gender). Statistical analysis with Mantel-Cox Log-rank test. *p<0.05 for RG-15 versus YA-15, **p<0.01 for ME-15 versus GP-15, YA-15 or VD-14. ? p<0.05 for ME-15 versus DA-15. Rest not significant. (b-f) Blood glucose levels for each individual mouse in the group immunised with GP-15 (b), YA-15 (c), ME-15 (d), RG-15 (e), DA-15 (f), VD-14 (g).
HLA-DR3-DQ2-transgenic (B6.hCD4.DR3-DQ2.MHCII^−/− mice (described previously (de Kauwe A L et al. (2009) J Immunol 182(12): 7440-7450), and obtained from J. McCluskey) were crossed with RIP-B7.1-transgenic animals (B6.Cg-Tg(Ins2-CD80)3B7Flv/Orl, EMMA, Orleans, France; ID 00216) in order to obtain HLA-DR3-DQ2^+huCD4^+IA/IE^−/−RIP.B7.1^+ mice, hereafter referred to as DR3DQ2×RIP-B7.1. DR4×RIP-B7.1 mice, generated by crossing B6.129S2-H2-Ab1^tm/Gru Tg(HLA-DRA/H2-Ea,HLA-DRB1*0401/H2-Eb) 1Kito mice with B6.Cg-Tg(Ins2-CD80)3B7Flv/Orl, were described previously (Verhagen J, et al. (2018) Sci Rep 8(1): 14106). All animals were kept under specific-pathogen-free conditions, in individually ventilated cages, at the KCL Biological Services Unit on 12-hour light/dark cycles with food and water provided ad libitum. Experiments were conducted in accordance with UK Home Office regulations under a project license held by M. Peakman. All work was subject to assessment and approved locally by Guy's animal welfare and ethical review board (AWERB).
All mice were monitored regularly for unprovoked glycosuria using Diastix strips (Bayer, Basel, Switzerland). Some mice were monitored weekly for hyperglycaemia, from the age of 6-7 weeks, by a minimal puncture of the tail vein at alternate sides of the tail and analysis using a OneTouch Verio meter and strips (Lifescan, High Wycombe, UK), in order to closely monitor progression towards spontaneous diabetes. Mice were considered diabetic following a blood glucose reading >16.7 mmol/l (300 mg/dl) in addition to confirmed glycosuria. […] Mice (aged 6-14 weeks) were primed with 100 μg of peptides or protein in TiterMax Gold adjuvant (TiterMax, Norcross, GA, USA) subcutaneously (s.c.) at the base of the tail and received a second dose s.c. distributed over the inguinal region on day 14. Mice received 200 ng Pertussis toxin (Sigma, Poole, UK) in PBS intraperitoneally (i.p.) on days 0 and 1 or 2. Mice were then monitored weekly for hyperglycaemia and for glycosuria. […]

For the next data set, the system named is RIP.CD80×DR3DQ2 mice. As to the kind of experiment: Tolerance induction against accelerated diabetes. In kind it is in vivo. The settings on record: 10 μg soluble peptide s.c., 6 injections, before and after priming with murine B23-C20 in adjuvant; ME-15 versus YA-15 p<0.01, versus VD-14 p<0.05. As to the method:
FIG. 6 Tolerance induction against accelerated diabetes in RIP.CD80×DR3DQ2 mice. (a) Schedule of dosing. Mice aged 7-8 weeks (n=7 per group) were treated with soluble 14/15-mer peptide in PBS subcutaneously (s.c.) before and after acceleration of diabetes development by antigenic priming with 30-mer murine proinsulin-2 peptide B23-C20 in TiterMax Gold adjuvant on days 0 and 14. Pertussis toxin administered intraperitoneally (i.p.) on days 0 and 2. (b) Diabetes incidence in mice treated with 14/15-mer peptide ME-15 (1♀6♂), YA-15 (4♀3♂) or VD-14 (3♀4♂). Statistical analysis with Mantel-Cox Log-rank test. ME-15 versus YA-15, p<0.01; ME versus VD-14, p<0.05.
All mice were monitored regularly for unprovoked glycosuria using Diastix strips (Bayer, Basel, Switzerland). Some mice were monitored weekly for hyperglycaemia, from the age of 6-7 weeks, by a minimal puncture of the tail vein at alternate sides of the tail and analysis using a OneTouch Verio meter and strips (Lifescan, High Wycombe, UK), in order to closely monitor progression towards spontaneous diabetes. Mice were considered diabetic following a blood glucose reading >16.7 mmol/l (300 mg/dl) in addition to confirmed glycosuria. […] Mice were then monitored weekly for hyperglycaemia and for glycosuria. […]

A further data set in a line: Solubility of peptide. The class given is physicochemical.
Data set [1] deals with human peripheral blood mononuclear cells (PBMCs). In words: ELISPOT assay of cytokine responses to proinsulin peptides. The class given is cell-based. Conditions: 10 μg/ml peptide, 48 hours. The source says: Responses to proinsulin B30-C13 in human donors. PBMC from individuals with either HLA-DR3-DQ2 (a) or any other haplotype (b) were stimulated in vitro with human proinsulin-derived peptide B30-C13 or C19-A3 prior to detection of IFNγ by ELISPOT assay. HLA-DR3-DQ2 individuals, n=3; non-HLA-DR3-DQ2, n=6. *p<0.05, ratio paired t test.
Responses to proinsulin B23-C20, B29-C11, B29-C14, B30-C13 and C-1-C14 peptides are shown. PBMCs from 5 type 1 diabetes patients with HLA-DR3-DQ2 (identified as #1-#5) were stimulated in vitro with human proinsulin-derived peptides B23-C20, B29-C11, B29-C14, B30-C13 and C−1-C14 prior to detection of IFN-γ and IL-17 (pro-inflammatory responses) and IL-10 (regulatory response) by ELISPOT assay. […]
ELISPOT assays were carried out using human peripheral blood mononuclear cells (PBMCs) isolated from fresh heparinized blood. […] The cytokine secretion assay was performed using the IFN-γ, IL-17 and IL-10 ELISPOT kits (U-CyTech) according to the manufacturer's instructions and plates were analysed using an automated ELISPOT Bioreader 6000 (Bio-Sys) and relevant software. Data are expressed as the total number of spots in triplicate wells after peptide stimulation divided by the total number of spots in diluent only control wells (stimulation index [SI]) or as responder CD4 T cells/10^6 PBMCs.

The mark [2] stands for this setting: adjuvanted priming, follow up to 20 weeks post prime.

Consider “DPQVAQLELGGGPGA (listed as Mus musculus) [DA-15, murine proinsulin-2 15-mer]”, for which the “diabetes acceleration / incidence versus control or spontaneous onset (in words)” value in the data set on DR3DQ2×RIP-B7.1 mice (setting [2]) is listed as “cannot”. The same measure, in the same setting: then “GAD65: Recombinant human GAD65 (T-cell GAD) purchased from Diamyd Medical”, with “only priming with proinsulin peptides clearly hastened diabetes onset and increased incidence”. Consider “GFFYTPMSRREVEDPQVAQLELGGGPGAGD (listed as Mus musculus) [B23-C20, murine 30-mer proinsulin-2 peptide B23-C20]”, for which the “mean time of onset of diabetes (SD)” value in the data set on DR3DQ2×RIP-B7.1 mice (100 μg in TiterMax Gold adjuvant s.c. days 0 and 14, pertussis toxin) came out at 49±16.2 days post prime. Further, the diabetes incidence in the data set with DR3DQ2×RIP-B7.1 mice (by day 84 post prime, 100 μg in TiterMax Gold adjuvant) was found to be 100%. In addition, the “diabetes acceleration / incidence versus control or spontaneous onset (in words)” value in the data set on DR3DQ2×RIP-B7.1 mice (mouse, in vivo) is “most overt disease exacerbation, with very rapid development of diabetes”.

For the substance “MSRREVEDPQVAQLE (listed as Mus musculus) [ME-15]”, the “tolerogenic effect on diabetes induced with B23-C20” value with RIP.CD80×DR3DQ2 mice is recorded as “tolerogenic effect”. The “diabetes acceleration / incidence versus control or spontaneous onset (in words)” value in the data set on DR3DQ2×RIP-B7.1 mice (setting [2]) is listed as “markedly higher disease incidence during follow up than would be expected spontaneously”. With “REVEDPQVAQLELGG [RG-15, REVEDPQVAQLELGG]”, in the data set “Solubility of peptide” (aqueous solution), the “solubility in aqueous solution” value is listed as “highly insoluble”. The “solubility in dimethyl sulfoxide” value in “Solubility of peptide” (dimethyl sulfoxide) is recorded as “soluble”.

“TRREAEDLQVGQVELG (listed as Homo sapiens) [B30-C13, fragment of human proinsulin, residues B30-C13]”: the “IFNγ ELISPOT response, HLA-DR3-DQ2 donors versus donors without this haplotype” value in data set [1] (HLA-DR3-DQ2 n=3, non-HLA-DR3-DQ2 n=6) was “greater response”. Also, in data set [1] (p<0.05 ratio paired t test), the “IFNγ ELISPOT response versus control peptide C19-A3” value was “greater than that to our control peptide C19-A3”. For the substance “VAQLELGGGPGAGD (listed as Mus musculus) [VD-14, murine proinsulin-2 14-mer]”, in the data set on DR3DQ2×RIP-B7.1 mice (setting [2]), the “diabetes acceleration / incidence versus control or spontaneous onset (in words)” value is “cannot”.
